# ChEMBL document CHEMBL1153751, “Biologically active tetranorditerpenoids from the fungus Sclerotinia homoeocarpa causal agent of dollar spot in turfgrass” (J Nat Prod, 2009)
# pIC50: −log10 of the molar value. Calls of active or inactive are those of the source. No cut-off for these calls is given here.
# System: KB
# Test: Cytotoxicity against human KB cells at 10 ug/ml after 48 hrs by neutral red dye staining
# Type: functional, cell-based
# Conditions: not given
row,Compound,inhibition
1,C[C@]12C=CC[C@]3(C)C(=O)O[C@@H](C13)[C@H]1O[C@]13COC(=O)C=C32 (some centres not stated),inactive
2,C[C@]12CC[C@@H](O)[C@]3(C)C(=O)O[C@@H](C13)[C@H]1O[C@]13COC(=O)C=C32 (some centres not stated),inactive

# System: SK-OV-3
# Test: Cytotoxicity against human SKOV3 cells at 10 ug/ml after 48 hrs by neutral red dye staining
# Type: functional, cell-based
# Conditions: not given
row,Compound,inhibition
1,C[C@]12C=CC[C@]3(C)C(=O)O[C@@H](C13)[C@H]1O[C@]13COC(=O)C=C32 (some centres not stated),inactive
2,C[C@]12CC[C@@H](O)[C@]3(C)C(=O)O[C@@H](C13)[C@H]1O[C@]13COC(=O)C=C32 (some centres not stated),inactive

# System: Plasmodium falciparum
# Test: microbe, parasite or virus in culture
# Conditions: W2, 72 h
row,Compound,IC50
1,C[C@@]12C=C[C@H](O)[C@]3(C)C(=O)O[C@H](C=C4COC(=O)C=C41)C23 (some centres not stated),0.032 µg/mL
2,C[C@@]12C=CC[C@]3(C)C(=O)O[C@H](C=C4COC(=O)C=C41)C23 (some centres not stated),0.13 µg/mL
3,C[C@]12C=CC[C@]3(C)C(=O)O[C@@H](C13)[C@H]1O[C@]13COC(=O)C=C32 (some centres not stated),2.3 µg/mL

# System: SK-MEL
# Test: Cytotoxicity against human SK-MEL cells after 48 hrs by neutral red dye staining
# Type: functional, cell-based
# Conditions: not given
row,Compound,IC50
1,C[C@@]12C=C[C@H](O)[C@]3(C)C(=O)O[C@H](C=C4COC(=O)C=C41)C23 (some centres not stated),0.12 µg/mL
2,C[C@@]12C=CC[C@]3(C)C(=O)O[C@H](C=C4COC(=O)C=C41)C23 (some centres not stated),2.3 µg/mL
3,C[C@]12C=CC[C@]3(C)C(=O)O[C@@H](C13)[C@H]1O[C@]13COC(=O)C=C32 (some centres not stated),2.8 µg/mL

# System: Lactuca sativa
# Test: Phytotoxicity against Lactuca sativa at 0.001 mg/ml
# Type: functional, organism-based
# Conditions: not given
row,Compound,Activity
1,C[C@@]12C=C[C@H](O)[C@]3(C)C(=O)O[C@H](C=C4COC(=O)C=C41)C23 (some centres not stated),inactive
2,C[C@@]12C=CC[C@]3(C)C(=O)O[C@H](C=C4COC(=O)C=C41)C23 (some centres not stated),inactive
3,C[C@]12C=CC[C@]3(C)C(=O)O[C@@H](C13)[C@H]1O[C@]13COC(=O)C=C32 (some centres not stated),inactive
4,C[C@]12CC[C@@H](O)[C@]3(C)C(=O)O[C@@H](C13)[C@H]1O[C@]13COC(=O)C=C32 (some centres not stated),inactive

# System: Agrostis stolonifera
# Test: Phytotoxicity against Agrostis stolonifera at 0.1 mg/ml
# Type: functional, organism-based
# Conditions: not given
row,Compound,Activity
1,C[C@@]12C=C[C@H](O)[C@]3(C)C(=O)O[C@H](C=C4COC(=O)C=C41)C23 (some centres not stated),Active
2,C[C@@]12C=CC[C@]3(C)C(=O)O[C@H](C=C4COC(=O)C=C41)C23 (some centres not stated),Active
3,C[C@]12C=CC[C@]3(C)C(=O)O[C@@H](C13)[C@H]1O[C@]13COC(=O)C=C32 (some centres not stated),Active

# System: Agrostis stolonifera
# Test: Phytotoxicity against Agrostis stolonifera at 0.001 mg/ml
# Type: functional, organism-based
# Conditions: not given
row,Compound,Activity
1,C[C@@]12C=C[C@H](O)[C@]3(C)C(=O)O[C@H](C=C4COC(=O)C=C41)C23 (some centres not stated),inactive
2,C[C@@]12C=CC[C@]3(C)C(=O)O[C@H](C=C4COC(=O)C=C41)C23 (some centres not stated),inactive
3,C[C@]12CC[C@@H](O)[C@]3(C)C(=O)O[C@@H](C13)[C@H]1O[C@]13COC(=O)C=C32 (some centres not stated),inactive

# System: Plasmodium falciparum
# Test: Antiplasmodial activity against chloroquine-resistant Plasmodium falciparum W2 assessed as LDH activity at 4760 ng/ml after 72 hrs by malstat reagent method
# Type: functional, organism-based
# Conditions: not given
row,Compound,inhibition
1,C[C@]12CC[C@@H](O)[C@]3(C)C(=O)O[C@@H](C13)[C@H]1O[C@]13COC(=O)C=C32 (some centres not stated),inactive

# System: SK-OV-3
# Test: Cytotoxicity against human SKOV3 cells after 48 hrs by neutral red dye staining
# Type: functional, cell-based
# Conditions: SK-OV-3, 48 h
row,Compound,IC50
1,C[C@@]12C=C[C@H](O)[C@]3(C)C(=O)O[C@H](C=C4COC(=O)C=C41)C23 (some centres not stated),1.1 µg/mL
2,C[C@@]12C=CC[C@]3(C)C(=O)O[C@H](C=C4COC(=O)C=C41)C23 (some centres not stated),6 µg/mL

# System: Vero
# Test: Cytotoxicity against african green monkey Vero cells after 48 hrs by neutral red dye staining
# Type: cell-based
# Conditions: Chlorocebus sabaeus
row,Compound,IC50
1,C[C@@]12C=C[C@H](O)[C@]3(C)C(=O)O[C@H](C=C4COC(=O)C=C41)C23 (some centres not stated),0.95 µg/mL
2,C[C@@]12C=CC[C@]3(C)C(=O)O[C@H](C=C4COC(=O)C=C41)C23 (some centres not stated),3 µg/mL

# System: Lactuca sativa
# Test: Phytotoxicity against Lactuca sativa at 1 mg/ml
# Type: functional, organism-based
# Conditions: not given
row,Compound,Activity
1,C[C@@]12C=C[C@H](O)[C@]3(C)C(=O)O[C@H](C=C4COC(=O)C=C41)C23 (some centres not stated),Active
2,C[C@@]12C=CC[C@]3(C)C(=O)O[C@H](C=C4COC(=O)C=C41)C23 (some centres not stated),Active
3,C[C@]12C=CC[C@]3(C)C(=O)O[C@@H](C13)[C@H]1O[C@]13COC(=O)C=C32 (some centres not stated),Active
4,C[C@]12CC[C@@H](O)[C@]3(C)C(=O)O[C@@H](C13)[C@H]1O[C@]13COC(=O)C=C32 (some centres not stated),Active

# System: not listed separately
# Test: Cytotoxicity against pig LLC-PK11 cells at 10 ug/ml after 48 hrs by neutral red dye staining
# Type: functional, cell-based, Sus scrofa
# Conditions: not given
row,Compound,Cytotoxicity at 10 ug/ml
1,C[C@]12CC[C@@H](O)[C@]3(C)C(=O)O[C@@H](C13)[C@H]1O[C@]13COC(=O)C=C32 (some centres not stated),Not Active

# System: Agrostis stolonifera
# Test: Phytotoxicity against Agrostis stolonifera at 0.01 mg/ml
# Type: functional, organism-based
# Conditions: not given
row,Compound,Activity
1,C[C@]12CC[C@@H](O)[C@]3(C)C(=O)O[C@@H](C13)[C@H]1O[C@]13COC(=O)C=C32 (some centres not stated),inactive

# System: not listed separately
# Test: Cytotoxicity against pig LLC-PK11 cells after 48 hrs by neutral red dye staining
# Type: functional, cell-based
# Conditions: Sus scrofa, LLC-PK11, 48 h
row,Compound,IC50
1,C[C@@]12C=C[C@H](O)[C@]3(C)C(=O)O[C@H](C=C4COC(=O)C=C41)C23 (some centres not stated),1.1 µg/mL
2,C[C@@]12C=CC[C@]3(C)C(=O)O[C@H](C=C4COC(=O)C=C41)C23 (some centres not stated),10 µg/mL
3,C[C@]12C=CC[C@]3(C)C(=O)O[C@@H](C13)[C@H]1O[C@]13COC(=O)C=C32 (some centres not stated),> 10 µg/mL

# System: Plasmodium falciparum
# Test: Antiplasmodial activity against chloroquine-sensitive Plasmodium falciparum D6 assessed as LDH activity at 4760 ng/ml after 72 hrs by malstat reagent method
# Type: functional, organism-based
# Conditions: not given
row,Compound,inhibition
1,C[C@]12CC[C@@H](O)[C@]3(C)C(=O)O[C@@H](C13)[C@H]1O[C@]13COC(=O)C=C32 (some centres not stated),inactive

# System: BT-549
# Test: Cytotoxicity against human BT549 cells at 10 ug/ml after 48 hrs by neutral red dye staining
# Type: functional, cell-based
# Conditions: not given
row,Compound,inhibition
1,C[C@]12CC[C@@H](O)[C@]3(C)C(=O)O[C@@H](C13)[C@H]1O[C@]13COC(=O)C=C32 (some centres not stated),inactive

# System: Lemna aequinoctialis
# Test: Phytotoxicity against Lemna paucicostata after 7 days
# Type: functional, organism-based
# Conditions: 168 h, read-out: I50
row,Compound,pIC50
1,C[C@@]12C=C[C@H](O)[C@]3(C)C(=O)O[C@H](C=C4COC(=O)C=C41)C23 (some centres not stated),6.10
2,C[C@@]12C=CC[C@]3(C)C(=O)O[C@H](C=C4COC(=O)C=C41)C23 (some centres not stated),6.14
3,C[C@]12C=CC[C@]3(C)C(=O)O[C@@H](C13)[C@H]1O[C@]13COC(=O)C=C32 (some centres not stated),6.19

# System: Vero
# Test: Cytotoxicity against african green monkey Vero cells at 4760 ng/ml after 48 hrs by neutral red dye staining
# Type: cell-based
# Conditions: Chlorocebus sabaeus
row,Compound,inhibition (INH)
1,C[C@]12C=CC[C@]3(C)C(=O)O[C@@H](C13)[C@H]1O[C@]13COC(=O)C=C32 (some centres not stated),Not Active
2,C[C@]12CC[C@@H](O)[C@]3(C)C(=O)O[C@@H](C13)[C@H]1O[C@]13COC(=O)C=C32 (some centres not stated),Not Active

# System: SK-MEL
# Test: Cytotoxicity against human SK-MEL cells at 10 ug/ml after 48 hrs by neutral red dye staining
# Type: functional, cell-based
# Conditions: not given
row,Compound,inhibition
1,C[C@]12CC[C@@H](O)[C@]3(C)C(=O)O[C@@H](C13)[C@H]1O[C@]13COC(=O)C=C32 (some centres not stated),inactive

# System: BT-549
# Test: Cytotoxicity against human BT549 cells after 48 hrs by neutral red dye staining
# Type: functional, cell-based
# Conditions: BT-549, 48 h
row,Compound,IC50
1,C[C@@]12C=C[C@H](O)[C@]3(C)C(=O)O[C@H](C=C4COC(=O)C=C41)C23 (some centres not stated),1.2 µg/mL
2,C[C@@]12C=CC[C@]3(C)C(=O)O[C@H](C=C4COC(=O)C=C41)C23 (some centres not stated),9.6 µg/mL
3,C[C@]12C=CC[C@]3(C)C(=O)O[C@@H](C13)[C@H]1O[C@]13COC(=O)C=C32 (some centres not stated),> 10 µg/mL

# System: KB
# Test: Cytotoxicity against human KB cells after 48 hrs by neutral red dye staining
# Type: functional, cell-based
# Conditions: not given
row,Compound,IC50
1,C[C@@]12C=C[C@H](O)[C@]3(C)C(=O)O[C@H](C=C4COC(=O)C=C41)C23 (some centres not stated),0.6 µg/mL
2,C[C@@]12C=CC[C@]3(C)C(=O)O[C@H](C=C4COC(=O)C=C41)C23 (some centres not stated),4.3 µg/mL

# System: Plasmodium falciparum
# Test: microbe, parasite or virus in culture
# Conditions: D6, 72 h
row,Compound,IC50
1,C[C@]12C=CC[C@]3(C)C(=O)O[C@@H](C13)[C@H]1O[C@]13COC(=O)C=C32 (some centres not stated),2.3 µg/mL

# System: Agrostis stolonifera
# Test: Phytotoxicity against Agrostis stolonifera at 1 mg/ml
# Type: functional, organism-based
# Conditions: not given
row,Compound,Activity
1,C[C@@]12C=C[C@H](O)[C@]3(C)C(=O)O[C@H](C=C4COC(=O)C=C41)C23 (some centres not stated),Active
2,C[C@@]12C=CC[C@]3(C)C(=O)O[C@H](C=C4COC(=O)C=C41)C23 (some centres not stated),Active
3,C[C@]12C=CC[C@]3(C)C(=O)O[C@@H](C13)[C@H]1O[C@]13COC(=O)C=C32 (some centres not stated),Active
4,C[C@]12CC[C@@H](O)[C@]3(C)C(=O)O[C@@H](C13)[C@H]1O[C@]13COC(=O)C=C32 (some centres not stated),Active

# System: Lactuca sativa
# Test: Phytotoxicity against Lactuca sativa at 0.1 mg/ml
# Type: functional, organism-based
# Conditions: not given
row,Compound,Activity
1,C[C@@]12C=C[C@H](O)[C@]3(C)C(=O)O[C@H](C=C4COC(=O)C=C41)C23 (some centres not stated),Active
2,C[C@@]12C=CC[C@]3(C)C(=O)O[C@H](C=C4COC(=O)C=C41)C23 (some centres not stated),Active
3,C[C@]12C=CC[C@]3(C)C(=O)O[C@@H](C13)[C@H]1O[C@]13COC(=O)C=C32 (some centres not stated),Active

# System: Lactuca sativa
# Test: Phytotoxicity against Lactuca sativa at 0.01 mg/ml
# Type: functional, organism-based
# Conditions: not given
row,Compound,Activity
1,C[C@@]12C=C[C@H](O)[C@]3(C)C(=O)O[C@H](C=C4COC(=O)C=C41)C23 (some centres not stated),Active
2,C[C@]12CC[C@@H](O)[C@]3(C)C(=O)O[C@@H](C13)[C@H]1O[C@]13COC(=O)C=C32 (some centres not stated),inactive
